Data reported in patent US20260184675A1, “CHIRAL ISOMERIC SULFITE COMPOUND AND APPLICATION THEREOF” (Chengdu Hanova BioSciences Co., Ltd, priority 2024, published 2026).

Experiments:
[1] = test system: Magnaporthe grisea; assay type: cell-based; details: 100 ppm; for Average antifungal rate (%) / Antifungal rate of Magnaporthe grisea (%), Replicate 1 / Antifungal rate of Magnaporthe grisea (%), Replicate 2 / Antifungal rate of Magnaporthe grisea (%), Replicate 3: 96-well plate; for Average antifungal rate (%): average of 3 replicates
[2] = test system: pest eggs of Tetranychus cinnabarinus; test: Effect on hatching of pest eggs of Tetranychus cinnabarinus, leaf disc method; assay type: in vivo; details: for Hatching rate (%): 7 days after insecticide delivery
Method: (§1) • (1) Preparation of leaf discs containing eggs: 20 female adult mites of Tetranychus cinnabarinus were transferred onto leaf discs of Vicia faba with a diameter of 2.0 cm (with wetted filter paper at the bottom), then covered it with a lidded culture dish and cultivated under moisturizing conditions, the adult mites were removed within 36 hours and microscopic examination and counting were performed on leaf discs containing eggs. • (2) Investigation of egg population base: Before pesticide soaking, a microscopic examination was conducted on the egg basic number of each leaf disc, with 2 replicates set for each treatment. • (3) Pesticide soaking treatment: The leaf butterflies loaded with mite eggs were soaked in clear water and sulfite compounds for 10 seconds, respectively, then taken out and cultivated under moisturizing conditions. Each treatment should be repeated for no less than 3 times. • (4) Cultivation and observation: The […] were cultivated under normal conditions. Five days after insecticide delivery, the hatching status of mite eggs was investigated. • Note: The temperature and humidity conditions of the constant temperature and humidity incubator after the treatment should be controlled so as to avoid excessive temperature differences, which may cause generation and dripping of condensate water in the culture dish, resulting in abnormal death of eggs due to soaking in water; it is also necessary to ensure sufficient strong ambient light, without directing irradiating the leaves. • (5) Survey of Results: The experimental materials of each treatment group were regularly hydrated and moisturized, and the hatching of eggs was observed. On the 7th day after insecticide delivery, the number of hatched eggs for each treatment was recorded, and the survey of results was recorded in the original notebook. According to the experimental requirements and characteristics of agents, the survey time can be shortened or extended. • 1) Surveying and recording the number of hatched eggs for each treatment. • 2) Photographing and recording whether there was any pesticide damage to the leaf discs of Vicia faba. • 3) Recording the developmental status of experimental mite eggs, behavior status of nymph mites, including abnormal phenomena such as delayed or stopped development of mite eggs, difficulty in breaking hull for nymph mites, or painful struggles after hatching, etc. • (6) Calculation method: Based on the survey data, the prevention and control effect of each treatment was calculated according to the following formula, and the calculation results were kept to two decimal places. [formula] [formula] [table]

[3] = test system: eggs of Panonychus citri; test: Effect on hatching of eggs of Panonychus citri, leaf disc method; assay type: in vivo; details: Panonychus citri eggs, 1 ppm; for Hatching rate (%), Replicate 1 / Hatching rate (%), Replicate 2 / Hatching rate (%), Replicate 3: 5 days after delivery; for Number of hatched larvae 5 days after insecticide delivery, Replicate 1 / Number of hatched larvae 5 days after insecticide delivery, Replicate 2 / Number of hatched larvae 5 days after insecticide delivery, Replicate 3: leaf disc
Method: as §1, with “extended.” for “extended. • 1) Surveying and recording the number of hatched eggs for each treatment. • 2) Photographing and recording whether there was any pesticide damage to the leaf discs of Vicia faba. • 3) Recording the developmental status of experimental mite eggs, behavior status of nymph mites, including abnormal phenomena such as delayed or stopped development of mite eggs, difficulty in breaking hull for nymph mites, or painful struggles after hatching, etc. • (6) Calculation method: Based on the survey data, the prevention and control effect of each treatment was calculated according to the following formula, and the calculation results were kept to two decimal places. [formula] [formula] [table]”
• 1) Surveying and recording the number of hatched eggs for each treatment. • 2) Photographing and recording whether there was any pesticide damage to the leaf discs of Vicia faba. • 3) Recording the developmental status of experimental mite eggs, behavior status of nymph mites, including abnormal phenomena such as delayed or stopped development of mite eggs, difficulty in breaking hull for nymph mites, or painful struggles after hatching, etc. • (6) Calculation method: Based on the survey data, the prevention and control effect of each treatment was calculated according to the following formula, and the calculation results were kept to two decimal places.
This test adopted the method in Test Example 1 of technical section, mainly used leaf disc method to explore the effect on hatching of eggs of Panonychus citri by compounds 1-(S,S), 1-(S,R), 1-(R,R), 1-(R,S), 1′-(S,S), 1′-(S,R), 1′-(R,R), 1′-(R,S), compound 1, compound 1′, S-10, R-10, S-10′, R-10′, compound 10, compound 10′, compound 19-(S,S), 19-(S,R), 19-(R,R), 19-(R,S), 19′-(S,S), 19′-(S,R), 19′-(R,R), 19′-(R,S), compound 19, and compound 19′. The concentration of all compounds was 1 ppm.

[4] = test system: eggs of Harmonia axyridis; test: Effect on hatching of eggs of Harmonia axyridis, egg card immersion; assay type: in vivo; details: 100 ppm; for Number of hatched larvae 4 days after insecticide delivery, Replicate 1 / Number of hatched larvae 4 days after insecticide delivery, Replicate 2 / Number of hatched larvae 4 days after insecticide delivery, Replicate 3: Harmonia axyridis egg cards, immersed 30 seconds; for Hatching rate (%), Replicate 1 / Hatching rate (%), Replicate 2 / Hatching rate (%), Replicate 3: Harmonia axyridis eggs, 4 days after delivery
Source text: The eggs of Harmonia axyridis cards (with approximately 20 eggs per card) were purchased from Henan Jiyuan Baiyun Industry Co., Ltd. in Henan Province. The number of eggs on the egg cards was counted as the basic number before insecticide delivery, and 5 cards were used as one treatment, with 3 replicates per treatment. After immersing the egg cards in a 100 ppm insecticide solution for 30 seconds, they were taken out and air dried, then cultivated under moisturizing conditions, and the […] were cultivated at 27° C. 4 days after insecticide delivery, the hatching status of eggs of Harmonia axyridis was investigated, and the prevention and control effect was calculated according to the following formula. [formula] [formula]

CCC(COc1ccc(Cl)cc1Cl)OS(=O)OCCF [19-(R,R)]
inhibitory rate against Magnaporthe grisea (in words) [1]: strong inhibitory rate | Average antifungal rate (%) [1]: 82.77% | Antifungal rate of Magnaporthe grisea (%), Replicate 1 [1]: 81.29% | Antifungal rate of Magnaporthe grisea (%), Replicate 2 [1]: 83.56% | Antifungal rate of Magnaporthe grisea (%), Replicate 3 [1]: 83.45% | Hatching rate (%) ([2]; 0.25 mg/L, Replicate 1): 75.00% | Hatching rate (%) ([2]; 0.25 mg/L, Replicate 2): 76.00% | Number of hatched larvae 7 days after insecticide delivery ([2]; 0.25 mg/L, Replicate 1): 18 | Number of hatched larvae 7 days after insecticide delivery ([2]; 0.25 mg/L, Replicate 2): 18 | Hatching rate (%) ([2]; 0.5 mg/L, Replicate 1): 36.23% | Hatching rate (%) ([2]; 0.5 mg/L, Replicate 2): 36.00% | Number of hatched larvae 7 days after insecticide delivery ([2]; 0.5 mg/L, Replicate 2): 34 | Hatching rate (%) ([2]; 1 mg/L, Replicate 1): 14.89% | Hatching rate (%) ([2]; 1 mg/L, Replicate 2): 16.67% | Number of hatched larvae 7 days after insecticide delivery ([2]; 1 mg/L, Replicate 1): 40 | Number of hatched larvae 7 days after insecticide delivery ([2]; 1 mg/L, Replicate 2): 55 | Hatching rate (%), Replicate 1 ([3]; listed as 19-(R, R)): 7.52% | Hatching rate (%), Replicate 2 ([3]; listed as 19-(R, R)): 8.41% | Hatching rate (%), Replicate 3 ([3]; listed as 19-(R, R)): 8.33% | Number of hatched larvae 5 days after insecticide delivery, Replicate 1 ([3]; listed as 19-(R, R)): 10 | Number of hatched larvae 5 days after insecticide delivery, Replicate 2 ([3]; listed as 19-(R, R)): 9 | Number of hatched larvae 5 days after insecticide delivery, Replicate 3 ([3]; listed as 19-(R, R)): 7 | Number of hatched larvae 4 days after insecticide delivery, Replicate 1 ([4]; listed as 19-(R, R)): 14 | Number of hatched larvae 4 days after insecticide delivery, Replicate 2 ([4]; listed as 19-(R, R)): 15 | Number of hatched larvae 4 days after insecticide delivery, Replicate 3 ([4]; listed as 19-(R, R)): 14 | Hatching rate (%), Replicate 1 ([4]; listed as 19-(R, R)): 14.43% | Hatching rate (%), Replicate 2 ([4]; listed as 19-(R, R)): 14.42% | Hatching rate (%), Replicate 3 ([4]; listed as 19-(R, R)): 13.73%

C[C@@H](COS(=O)OCCF)Oc1ccc(Cl)cc1Cl (stereo partly drawn) [1-(S,R)]
inhibitory rate against Magnaporthe grisea (in words) [1]: strong inhibitory rate | Average antifungal rate (%) [1]: 82.92% | Antifungal rate of Magnaporthe grisea (%), Replicate 1 [1]: 87.32% | Antifungal rate of Magnaporthe grisea (%), Replicate 2 [1]: 82.96% | Antifungal rate of Magnaporthe grisea (%), Replicate 3 [1]: 78.48% | Hatching rate (%) ([2]; 0.25 mg/L, Replicate 1): 59.57% | Hatching rate (%) ([2]; 0.25 mg/L, Replicate 2): 76.09% | Number of hatched larvae 7 days after insecticide delivery ([2]; 0.25 mg/L, Replicate 1): 19 | Number of hatched larvae 7 days after insecticide delivery ([2]; 0.25 mg/L, Replicate 2): 11 | Hatching rate (%) ([2]; 0.5 mg/L, Replicate 1): 35.29% | Hatching rate (%) ([2]; 0.5 mg/L, Replicate 2): 31.25% | Number of hatched larvae 7 days after insecticide delivery ([2]; 0.5 mg/L, Replicate 1): 33 | Number of hatched larvae 7 days after insecticide delivery ([2]; 0.5 mg/L, Replicate 2): 44 | Hatching rate (%) ([2]; 1 mg/L, Replicate 1): 2.56% | Hatching rate (%) ([2]; 1 mg/L, Replicate 2): 0.00% | Number of hatched larvae 7 days after insecticide delivery ([2]; 1 mg/L, Replicate 1): 76 | Number of hatched larvae 7 days after insecticide delivery ([2]; 1 mg/L, Replicate 2): 64 | Hatching rate (%), Replicate 1 ([3]; listed as 1-(S, R)): 5.83% | Hatching rate (%), Replicate 2 ([3]; listed as 1-(S, R)): 5.75% | Hatching rate (%), Replicate 3 ([3]; listed as 1-(S, R)): 6.06% | Number of hatched larvae 5 days after insecticide delivery, Replicate 1 ([3]; listed as 1-(S, R)): 6 | Number of hatched larvae 5 days after insecticide delivery, Replicate 2 ([3]; listed as 1-(S, R)): 5 | Number of hatched larvae 5 days after insecticide delivery, Replicate 3 ([3]; listed as 1-(S, R)): 8 | Number of hatched larvae 4 days after insecticide delivery, Replicate 1 ([4]; listed as 1-(S, R)): 13 | Number of hatched larvae 4 days after insecticide delivery, Replicate 2 ([4]; listed as 1-(S, R)): 14 | Number of hatched larvae 4 days after insecticide delivery, Replicate 3 ([4]; listed as 1-(S, R)): 14 | Hatching rate (%), Replicate 1 ([4]; listed as 1-(S, R)): 12.04% | Hatching rate (%), Replicate 2 ([4]; listed as 1-(S, R)): 14.14% | Hatching rate (%), Replicate 3 ([4]; listed as 1-(S, R)): 13.73%
